Biological target: TRKA (Homo sapiens (Human), UniProt P04629)
Test: Isolated TRK enzyme assay (HTRF KinEASE-TK), TRKA
Format: biochemical
Conditions: read-out: Trka enzyme (IC50)

Chain of TRKA (P04629 441-796): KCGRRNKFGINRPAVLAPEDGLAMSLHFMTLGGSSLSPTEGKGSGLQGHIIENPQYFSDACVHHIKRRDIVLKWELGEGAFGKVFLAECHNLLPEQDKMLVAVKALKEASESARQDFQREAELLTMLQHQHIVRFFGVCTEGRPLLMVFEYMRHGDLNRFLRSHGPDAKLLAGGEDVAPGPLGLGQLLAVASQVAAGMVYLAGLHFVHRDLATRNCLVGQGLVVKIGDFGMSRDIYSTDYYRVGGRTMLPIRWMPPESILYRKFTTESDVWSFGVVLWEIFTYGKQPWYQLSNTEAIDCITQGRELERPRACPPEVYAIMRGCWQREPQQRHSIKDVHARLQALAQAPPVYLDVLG

Row | Compound | IC50 [nM]
1 | CC(C)n1cc(C(=O)c2cncc(NC(=O)c3ncn4c3CCC4)c2)c2cncnc21 [Example 403, 6,7-Dihydro-5H-pyrrolo[1,2-c]imidazole-1-carboxylic acid [5-(7-isopropyl-7H-pyrrolo[2,3-d]pyrimidine-5-carbonyl)-pyridin-3-yl]-amide] | 1220
2 | CC(C)n1cc(C(=O)c2cncc(NC(=O)c3cn(C)nc3C(F)(F)F)c2)c2cncnc21 [Example 405, 1-Methyl-3-trifluoromethyl-1H-pyrazole-4-carboxylic acid [5-(7-isopropyl-7H-pyrrolo[2,3-d]pyrimidine-5-carbonyl)-pyridin-3-yl]-amide] | 1630
3 | CC(C)n1cc(C(=O)c2cncc(NC(=O)c3ccn4cncc4c3)c2)c2cncnc21 [Example 406, Imidazo[1,5-a]pyridine-7-carboxylicacid [5-(7-isopropyl-7H-pyrrolo[2,3-d]pyrimidine-5-carbonyl)-pyridin-3-yl]-amide] | 2640
4 | CCc1cc(C(=O)Nc2cncc(C(=O)c3cn(C(C)C)c4ncncc34)c2)on1 [Example 408, 3-Ethyl-isoxazole-5-carboxylic acid[5-(7-isopropyl-7H-pyrrolo[2,3-d]pyrimidine-5-carbonyl)-pyridin-3-yl]-amide] | 654
5 | CC(C)n1cc(C(=O)c2cncc(NC(=O)c3cncnc3)c2)c2cncnc21 [Example 410, Pyrimidine-5-carboxylic acid [5-(7-isopropyl-7H-pyrrolo[2,3-d]pyrimidine-5-carbonyl)-pyridin-3-yl]-amide] | 9800
6 | Cc1n[nH]cc1C(=O)Nc1cncc(C(=O)c2cn(C(C)C)c3ncncc23)c1 [Example 411, 3-Methyl-1H-pyrazole-4-carboxylic acid [5-(7-isopropyl-7H-pyrrolo[2,3-d]pyrimidine-5-carbonyl)-pyridin-3-yl]-amide] | 9800
7 | Cc1cnc2[nH]cc(C(=O)Nc3cncc(C(=O)c4cn(C(C)C)c5ncncc45)c3)c2c1 [Example 412, 5-Methyl-1H-pyrrolo[2,3-b]pyridine-3-carboxylic acid [5-(7-isopropyl-7H-pyrrolo[2,3-d]pyrimidine-5-carbonyl)-pyridin-3-yl]-amide] | 5.18
8 | Cc1cncnc1C(=O)Nc1cncc(C(=O)c2cn(C(C)C)c3ncncc23)c1 [Example 413, 5-Methyl-pyrimidine-4-carboxylic acid [5-(7-isopropyl-7H-pyrrolo[2,3-d]pyrimidine-5-carbonyl)-pyridin-3-yl]-amide] | 9800
9 | CC(C)n1cc(C(=O)c2cncc(NC(=O)c3cnc4ccsc4c3)c2)c2cncnc21 [Example 414, Thieno[3,2-b]pyridine-6-carboxylic acid [5-(7-isopropyl-7H-pyrrolo[2,3-d]pyrimidine-5-carbonyl)-pyridin-3-yl]-amide] | 158
10 | CC(C)n1cc(C(=O)c2cncc(NC(=O)c3noc4c3CCCC4)c2)c2cncnc21 [Example 416, 4,5,6,7-Tetrahydro-1,2-benzisoxazole-3-carboxylic acid [5-(7-isopropyl-7H-pyrrolo[2,3-d]pyrimidine-5-carbonyl)-pyridin-3-yl]-amide] | 52
11 | CC(C)n1cc(C(=O)c2cncc(NC(=O)c3n[nH]c4c3CCC4)c2)c2cncnc21 [Example 419, 1,4,5,6-Tetrahydro-cyclopentapyrazole-3-carboxylic acid [5-(7-isopropyl-7H-pyrrolo[2,3-d]pyrimidine-5-carbonyl)-pyridin-3-yl]-amide] | 15.1
12 | CC(C)n1cc(C(=O)c2cncc(NC(=O)c3cncnc3N)c2)c2cncnc21 [Example 420, 4-Amino-pyrimidine-5-carboxylic acid [5-(7-isopropyl-7H-pyrrolo[2,3-d]pyrimidine-5-carbonyl)-pyridin-3-yl]-amide] | 9800
13 | CC(C)n1cc(C(=O)c2cncc(NC(=O)c3cc4occc4[nH]3)c2)c2cncnc21 [Example 431, 4H-Furo[3,2-b]pyrrole-5-carboxylic acid [5-(7-isopropyl-7H-pyrrolo1[2,3-d]pyrimidine-5-carbonyl)-pyridin-3-yl]-amide] | 235
14 | CCn1cc(C(=O)Nc2cncc(C(=O)c3cn(C(C)C)c4ncncc34)c2)cn1 [Example 433, 1-Ethyl-1H-pyrazole-4-carboxylic acid [5-(7-isopropyl-7H-pyrrolo[2,3-d]pyrimidine-5-carbonyl)-pyridin-3-yl]-amide] | 246
15 | COc1nc(C(=O)Nc2cncc(C(=O)c3cn(C(C)C)c4ncncc34)c2)cn2ccnc12 [Example 435, 8-Methoxy-imidazo[1,2-a]pyrazine-6-carboxylic acid [5-(7-isopropyl-7H-pyrrolo[2,3-d]pyrimidine-5-carbonyl)-pyridin-3-yl]amide] | 5490

Results, then the molecule that gave them:

Row | IC50 [nM] | Compound
16 | 118 | CC(C)n1cc(C(=O)c2cncc(NC(=O)c3cc4sccc4cn3)c2)c2cncnc21 [Example 404, Thieno[3,2-c]pyridine-6-carboxylic acid [5-(7-isopropyl-7H-pyrrolo[2,3-d]pyrimidine-5-carbonyl)-pyridin-3-yl]-amide]
17 | 2600 | CC(C)n1cc(C(=O)c2cncc(NC(=O)c3ccnc4[nH]ccc34)c2)c2cncnc21 [Example 407, 1H-Pyrrolo[2,3-b]pyridine-4-carboxylic acid [5-(7-isopropyl-7H-pyrrolo[2,3-d]pyrimidine-5-carbonyl)-pyridin-3-yl]-amide]
18 | 70.4 | COc1ccnc(C(=O)Nc2cncc(C(=O)c3cn(C(C)C)c4ncncc34)c2)c1 [Example 409, 4-Methoxy-pyridine-2-carboxylic acid [5-(7-isopropyl-7H-pyrrolo[2,3-d]pyrimidine-5-carbonyl)-pyridin-3-yl]-amide]
19 | 2590 | CC(C)n1cc(C(=O)c2cncc(NC(=O)c3cnc4ccnn4c3)c2)c2cncnc21 [Example 415, Pyrazolo[1,5-a]pyrimidine-6-carboxylic acid [5-(7-isopropyl-7H-pyrrolo[2,3-d]pyrimidine-5-carbonyl)-pyridin-3-yl]-amide]
20 | 71.2 | CC(C)n1cc(C(=O)c2cncc(NC(=O)c3ncc4ccccn34)c2)c2cncnc21 [Example 417, Imidazo[1,5-a]pyridine-3-carboxylicacid [5-(7-isopropyl-7H-pyrrolo[2,3-d]pyrimidine-5-carbonyl)-pyridin-3-yl]-amide]
21 | 40.2 | CC(C)n1cc(C(=O)c2cncc(NC(=O)c3ccc4cc[nH]c4n3)c2)c2cncnc21 [Example 418, 1H-Pyrrolo[2,3-b]pyridine-6-carboxylic acid [5-(7-isopropyl-7H-pyrrolo[2,3-d]pyrimidine-5-carbonyl)-pyridin-3-yl]-amide]
22 | 1730 | CC(C)n1cc(C(=O)c2cncc(NC(=O)c3c[nH]c4cnccc34)c2)c2cncnc21 [Example 421, 1H-Pyrrolo[2,3-c]pyridine-3-carboxylic acid [5-(7-isopropyl-7H-pyrrolo[2,3-d]pyrimidine-5-carbonyl)-pyridin-3-yl]amide]
23 | 451 | Cc1cc(C(=O)Nc2cncc(C(=O)c3cn(C(C)C)c4ncncc34)c2)ccn1 [Example 422, N-[5-(7-Isopropyl-7H-pyrrolo[2,3-d]pyrimidine-5-carbonyl)-pyridin-3-yl]-2-methyl-isonicotinamide]
24 | 1330 | CC(C)n1cc(C(=O)c2cncc(NC(=O)c3ccc4nccn4c3)c2)c2cncnc21 [Example 423, Imidazo[1,2-a]pyridine-6-carboxylicacid [5-(7-isopropyl-7H-pyrrolo[2,3-d]pyrimidine-5-carbonyl)-pyridin-3-yl]amide]
25 | 4310 | CC(C)n1cc(C(=O)c2cncc(NC(=O)c3nc[nH]n3)c2)c2cncnc21 [Example 424, 1H-1,2,4-Triazole-3-carboxylic acid[5-(7-isopropyl-7H-pyrrolo[2,3-d]pyrimidine-5-carbonyl)-pyridin-3-yl]-amide]
26 | 796 | COc1ccc(C(=O)Nc2cncc(C(=O)c3cn(C(C)C)c4ncncc34)c2)nc1 [Example 425, 5-Methoxy-pyridine-2-carboxylic acid [5-(7-isopropyl-7H-pyrrolo[2,3-d]pyrimidine-5-carbonyl)-pyridin-3-yl]-amide]
27 | 228 | CC(C)n1cc(C(=O)c2cncc(NC(=O)c3cnnc4ccccc34)c2)c2cncnc21 [Example 426, Cinnoline-4-carboxylic acid [5-(7-isopropyl-7H-pyrrolo[2,3-d]pyrimidine-5-carbonyl)-pyridin-3-yl]-amide]
28 | 93.4 | CC(C)n1cc(C(=O)c2cncc(NC(=O)c3ccn4ncnc4c3)c2)c2cncnc21 [Example 427, [1,2,4]Triazolo[1,5-a]pyridine-7-carboxylic acid [5-(7-isopropyl-7H-pyrrolo[2,3-d]pyrimidine-5-carbonyl)-pyridin-3-yl]amide]
29 | 960 | CC(C)n1cc(C(=O)c2cncc(NC(=O)c3cc4ncccn4n3)c2)c2cncnc21 [Example 428, Pyrazolo[1,5-a]pyrimidine-2-carboxylic acid [5-(7-isopropyl-7H-pyrrolo[2,3-d]pyrimidine-5-carbonyl)-pyridin-3-yl]amide]
30 | 2740 | CC(C)n1cc(C(=O)c2cncc(NC(=O)c3ccccn3)c2)c2cncnc21 [Example 429, Pyridine-2-carboxylic acid [5-(7-isopropyl-7H-pyrrolo[2,3-d]pyrimidine-5-carbonyl)-pyridin-3-yl]-amide]
31 | 297 | CC(C)n1cc(C(=O)c2cncc(NC(=O)c3cncc(Cl)c3)c2)c2cncnc21 [Example 430, 5-Chloro-N-[5-(7-isopropyl-7H-pyrrolo[2,3-d]pyrimidine-5-carbonyl)-pyridin-3-yl]-nicotinamide]
32 | 2790 | CC(C)n1cc(C(=O)c2cncc(NC(=O)c3ccn4ccnc4c3)c2)c2cncnc21 [Example 432, Imidazo[1,2-a]pyridine-7-carboxylicacid [5-(7-isopropyl-7H-pyrrolo[2,3-d]pyrimidine-5-carbonyl)-pyridin-3-yl]amide]
33 | 99.9 | CC(C)n1cnc(C(=O)Nc2cncc(C(=O)c3cn(C(C)C)c4ncncc34)c2)c1 [Example 434, 1-Isopropyl-1H-imidazole-4-carboxylic acid [5-(7-isopropyl-7H-pyrrolo[2,3-d]pyrimidine-5-carbonyl)-pyridin-3-yl]-amide]
